This is an account of results in US6214846A, “Substituted 3-(benzylamino)piperidine derivatives and their use as therapeutic agents” (Merck Sharp & Dohme Limited, priority 1997, dated 2001).

Structures can show the parent of a compound that is named as a salt.

In the assay the target is human NK1 receptor (Homo sapiens, UniProt P25103). Briefly: IC50 at the human NK1 receptor (methods of pages 36 to 39 of WO 93/01165). In kind it is binding. The following applies: test method of WO 93/01165. As to the method: The exemplified compounds of this invention were tested by the methods set out at pages 36 to 39 of International Patent Specification No. WO 93/01165.
Sequence of human NK1 receptor (P25103 whole entry): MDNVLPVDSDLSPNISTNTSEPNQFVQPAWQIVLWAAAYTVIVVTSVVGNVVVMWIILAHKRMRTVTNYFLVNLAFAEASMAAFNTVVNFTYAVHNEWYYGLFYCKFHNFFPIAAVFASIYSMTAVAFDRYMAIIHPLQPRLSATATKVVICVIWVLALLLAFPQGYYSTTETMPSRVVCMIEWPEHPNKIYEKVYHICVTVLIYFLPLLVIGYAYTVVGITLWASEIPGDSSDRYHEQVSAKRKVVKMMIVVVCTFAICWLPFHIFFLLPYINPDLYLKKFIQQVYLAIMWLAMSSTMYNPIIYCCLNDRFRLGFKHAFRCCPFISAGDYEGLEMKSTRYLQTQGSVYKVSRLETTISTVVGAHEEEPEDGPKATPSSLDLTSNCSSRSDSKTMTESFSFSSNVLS

Take `FC(F)(F)Oc1ccc(OC2CC2)c(CN[C@H]2CCCN[C@H]2c2ccccc2)c1` (relative stereo) [Example 1, (±)-(2R3R,2S3S)-N-{[2-Cyclopropoxy-5-(trifluoromethoxy)phenyl]methyl}-2-phenylpiperidin-3-amine Dihydrochloride]: it took 0.17 nM to reach half-maximal inhibition (IC50).
Then `Fc1ccc([C@@H]2NCCC[C@@H]2NCc2cc(OC(F)(F)F)ccc2OC2CC2)cc1` (relative stereo) [Example 3, (±)-(2R3R,2S3S)-N-{[2-Cyclopropoxy-5-(trifluoromethoxy)phenyl]methyl}-2-(4-fluorophenyl)piperidin-3-amine Dihydrochloride], with 0.2 nM.
